Source: patent publication US11000033B2, “Ketone or oxime compound, and herbicide” (NISSAN CHEMICAL CORPORATION, priority 2014, dated 2021)

Columns and labels:
Format in all cases: in vivo
Monochoria vaginalis = test: Test Example 1: herbicidal activity, application before weed generation in submerged conditions (symbol C); conditions: application herbicide amount 320 g/ha
Method in brief: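 Application before weed emergence: an aqueous dilution of the emulsion formulation was poured onto the surface of 4 cm-deep floodwater on the day of sowing. Effect was judged after 3 weeks (greenhouse, 25–30 °C).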

Chenopodium album = test: Test Example 5: herbicidal effect by foliage application, plastic box (symbol O); conditions: 320 g/ha, 3 weeks after application
Method in brief: (§1)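 Leaf-applied emulsion, water-diluted to a preset herbicide dose, on two-week-old seedlings raised in a 25° C. to 30° C. greenhouse; injury rated at 3 weeks using earlier criteria.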

[1] = tested on: Echinochloa oryzacola Vasing.; test: Test Example 2: herbicidal activity, application during weed generation in submerged conditions (symbol A); conditions: Table 23; application herbicide amount 320 g/ha; grade 0-5 by criteria of Test Example 1
Method in brief: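 Alluvial soil in pots was flooded to a 4 cm water depth and sown with a mix of the three weed species, then grown in a greenhouse at 25° C. to 30° C. At the one- to two-leaf stage, an emulsifiable formulation diluted in water to a set dose was applied to the water surface. Effects were scored visually 3 weeks later.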

soybean = test: Test Example 5: effect on crop by foliage application, plastic box (symbol d); conditions: 320 g/ha, 3 weeks after application
Method in brief: (§2)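 Seeds were sown in spots in sterilized diluvial soil held in a plastic box 21 cm × 13 cm × 7 cm deep, covered with about 1.5 cm of soil, and grown in a greenhouse at 25° C. to 30° C.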

rapeseed = test: Test Example 5: effect on crop by foliage application, plastic box (symbol g); conditions: 320 g/ha, 3 weeks after application
Method in brief: as §2

Leptochloa chinensis = test: Test Example 3: herbicidal effect by foliage application, Wagner pot (symbol D); conditions: application herbicide amount 320 g/ha
Method in brief: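 Weeds and rice were sown in alluvial soil under 0.1–0.5 cm of standing water and grown for 14 days in a 25–30 °C greenhouse. An emulsion of the compound, diluted in water to a set dose, was sprayed evenly onto the foliage. Effect was scored against fixed criteria 3 weeks after treatment.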

Galium spurium = test: Test Example 5: herbicidal effect by foliage application, plastic box (symbol Q); conditions: 320 g/ha, 3 weeks after application
Method in brief: as §1

beet = test: Test Example 5: effect on crop by foliage application, plastic box (symbol f); conditions: 320 g/ha, 3 weeks after application
Method in brief: as §2

Setaria viridis = test: Test Example 4: herbicidal effect by soil treatment (symbol G); conditions: application herbicide amount 320 g/ha
Method in brief: (§3)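 Seeds were sown in sterilized diluvial soil, covered with about 1.5 cm of soil, and the soil surface was sprayed with a water-diluted emulsion of the compound at a predetermined rate. Plants grew in a greenhouse at 25° C. to 30° C.; effects were scored visually 3 weeks after application.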

Abutilon theophrasti = test: Test Example 5: herbicidal effect by foliage application, plastic box (symbol M); conditions: 320 g/ha, 3 weeks after application
Method in brief: as §1

Amaranthus retroflexus = test: Test Example 5: herbicidal effect by foliage application, plastic box (symbol N); conditions: 320 g/ha, 3 weeks after application
Method in brief: as §1

Digitaria ciliaris = test: Test Example 4: herbicidal effect by soil treatment (symbol F); conditions: application herbicide amount 320 g/ha
Method in brief: as §3

corn = test: Test Example 5: effect on crop by foliage application, plastic box (symbol c); conditions: 320 g/ha, 3 weeks after application
Method in brief: as §2

Apera spica-venti = test: Test Example 5: herbicidal effect by foliage application, plastic box (symbol L); conditions: 320 g/ha, 3 weeks after application
Method in brief: as §1

Structure (SMILES) | Herbicidal effect grade, C: Monochoria vaginalis (Monochoria vaginalis) | O: Chenopodium album, herbicidal effect grade (Chenopodium album) | Herbicidal effect grade, A: Echinochloa oryzacola Vasing. [1] | d: soybean, effect on crop grade (soybean) | g: rapeseed, effect on crop grade (rapeseed) | herbicidal effect on D (Leptochloa chinensis), grade 0-5 (Leptochloa chinensis) | Q: Galium spurium, herbicidal effect grade (Galium spurium) | f: beet, effect on crop grade (beet) | G: Setaria viridis, herbicidal effect grade (Setaria viridis) | M: Abutilon theophrasti, herbicidal effect grade (Abutilon theophrasti) | N: Amaranthus retroflexus, herbicidal effect grade (Amaranthus retroflexus) | F: Digitaria ciliaris, herbicidal effect grade (Digitaria ciliaris) | c: corn, effect on crop grade (corn) | L: Apera spica-venti, herbicidal effect grade (Apera spica-venti) | G (Setaria viridis) herbicidal effect grade (Setaria viridis) | F (Digitaria ciliaris) herbicidal effect grade (Digitaria ciliaris)
CCc1cc(Br)cc(C)c1C1=C(O)CC(C(C(=O)OC)C(C)=NOC)C1=O (stereo not shown) [6-002] | 0 (Herbicidal ratio of 5% or lower (almost no effect)) | 0 (Herbicidal ratio of 5% or lower (almost no effect)) | 0 (Herbicidal ratio of 5% or lower (almost no effect)) | 0 (Herbicidal ratio of 5% or lower (almost no effect)) | 0 (Herbicidal ratio of 5% or lower (almost no effect)) | 4 (Herbicidal ratio of 70% or higher and lower than 90%) | 0 (Herbicidal ratio of 5% or lower (almost no effect)) | 0 (Herbicidal ratio of 5% or lower (almost no effect)) | 3 (Herbicidal ratio of 40% or higher and lower than 70%) | 1 (Herbicidal ratio of 5% or higher and lower than 20%) | 0 (Herbicidal ratio of 5% or lower (almost no effect)) | 2 (Herbicidal ratio of 20% or higher and lower than 40%) | 5 (Herbicidal ratio of 90% or more (almost completely withered)) | 5 (Herbicidal ratio of 90% or more (almost completely withered)) |  | 
CON=C(C)CC1CC(OC(=O)c2ccccc2)=C(c2c(C)cc(C)cc2C)C1=O (stereo not shown) [1-010] | 2 (Herbicidal ratio of 20% or higher and lower than 40%) | 4 (Herbicidal ratio of 70% or higher and lower than 90%) | 5 (Herbicidal ratio of 90% or more (almost completely withered)) | 4 (Herbicidal ratio of 70% or higher and lower than 90%) | 4 (Herbicidal ratio of 70% or higher and lower than 90%) | 5 (Herbicidal ratio of 90% or more (almost completely withered)) | 4 (Herbicidal ratio of 70% or higher and lower than 90%) | 4 (Herbicidal ratio of 70% or higher and lower than 90%) |  | 4 (Herbicidal ratio of 70% or higher and lower than 90%) | 4 (Herbicidal ratio of 70% or higher and lower than 90%) |  | 5 (Herbicidal ratio of 90% or more (almost completely withered)) | 5 (Herbicidal ratio of 90% or more (almost completely withered)) | 3 (Herbicidal ratio of 40% or higher and lower than 70%) | 5 (Herbicidal ratio of 90% or more (almost completely withered))
CON=C(C)CC1CC(OCC(=O)OC)=C(c2c(C)cc(C)cc2C)C1=O (stereo not shown) [1-012] | 0 (Herbicidal ratio of 5% or lower (almost no effect)) | 0 (Herbicidal ratio of 5% or lower (almost no effect)) | 0 (Herbicidal ratio of 5% or lower (almost no effect)) | 0 (Herbicidal ratio of 5% or lower (almost no effect)) | 0 (Herbicidal ratio of 5% or lower (almost no effect)) | 0 (Herbicidal ratio of 5% or lower (almost no effect)) | 0 (Herbicidal ratio of 5% or lower (almost no effect)) | 0 (Herbicidal ratio of 5% or lower (almost no effect)) |  | 0 (Herbicidal ratio of 5% or lower (almost no effect)) | 0 (Herbicidal ratio of 5% or lower (almost no effect)) |  | 0 (Herbicidal ratio of 5% or lower (almost no effect)) | 0 (Herbicidal ratio of 5% or lower (almost no effect)) | 0 (Herbicidal ratio of 5% or lower (almost no effect)) | 0 (Herbicidal ratio of 5% or lower (almost no effect))
CON=C(C)CC1CC(O)=C(c2c(C)cc(C#CCO)cc2C)C1=O (mixture of isomers) [6-025] | 0 (Herbicidal ratio of 5% or lower (almost no effect)) | 0 (Herbicidal ratio of 5% or lower (almost no effect)) | 2 (Herbicidal ratio of 20% or higher and lower than 40%) | 0 (Herbicidal ratio of 5% or lower (almost no effect)) | 3 (Herbicidal ratio of 40% or higher and lower than 70%) | 5 (Herbicidal ratio of 90% or more (almost completely withered)) | 0 (Herbicidal ratio of 5% or lower (almost no effect)) | 0 (Herbicidal ratio of 5% or lower (almost no effect)) | 4 (Herbicidal ratio of 70% or higher and lower than 90%) | 0 (Herbicidal ratio of 5% or lower (almost no effect)) | 0 (Herbicidal ratio of 5% or lower (almost no effect)) | 3 (Herbicidal ratio of 40% or higher and lower than 70%) | 4 (Herbicidal ratio of 70% or higher and lower than 90%) | 5 (Herbicidal ratio of 90% or more (almost completely withered)) |  | 
C#CCOC1=C(c2c(C)cc(C)cc2C)C(=O)C(CC(C)=NOC)C1 (stereo not shown) [1-008] | 0 (Herbicidal ratio of 5% or lower (almost no effect)) | 0 (Herbicidal ratio of 5% or lower (almost no effect)) | 5 (Herbicidal ratio of 90% or more (almost completely withered)) | 2 (Herbicidal ratio of 20% or higher and lower than 40%) | 3 (Herbicidal ratio of 40% or higher and lower than 70%) | 5 (Herbicidal ratio of 90% or more (almost completely withered)) | 0 (Herbicidal ratio of 5% or lower (almost no effect)) | 0 (Herbicidal ratio of 5% or lower (almost no effect)) |  | 2 (Herbicidal ratio of 20% or higher and lower than 40%) | 0 (Herbicidal ratio of 5% or lower (almost no effect)) |  | 0 (Herbicidal ratio of 5% or lower (almost no effect)) | 4 (Herbicidal ratio of 70% or higher and lower than 90%) | 4 (Herbicidal ratio of 70% or higher and lower than 90%) | 5 (Herbicidal ratio of 90% or more (almost completely withered))
